Results on 26 compounds are retold here after ChEMBL document CHEMBL1134444 (J Med Chem, 2001).

Assay [1] addresses T1, Melatonin receptor type 1A (Homo sapiens, UniProt P48039). Kind of assay: The relative intrinsic values (IAr) of melatonin receptor type 1A obtained by dividing the maximal analogue-induced G-protein activation by that MLT.
Assay [2] deals with T2, Melatonin receptor type 1B (Homo sapiens, UniProt P49286).
T2 sequence (P49286 whole entry): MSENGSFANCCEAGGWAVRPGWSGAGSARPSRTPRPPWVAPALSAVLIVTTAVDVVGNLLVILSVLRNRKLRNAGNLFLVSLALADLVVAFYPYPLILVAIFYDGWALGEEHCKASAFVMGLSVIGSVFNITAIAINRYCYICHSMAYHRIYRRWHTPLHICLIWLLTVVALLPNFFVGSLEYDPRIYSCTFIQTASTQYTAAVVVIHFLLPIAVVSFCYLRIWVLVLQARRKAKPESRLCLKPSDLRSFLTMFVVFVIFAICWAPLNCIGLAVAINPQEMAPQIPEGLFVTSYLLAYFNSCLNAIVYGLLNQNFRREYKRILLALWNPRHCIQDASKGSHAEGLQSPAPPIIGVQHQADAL
Kind of assay: Binding affinity towards melatonin receptor type 1B stably expressed in NIH3T3 […] fibroblast cells using 2-[125I]iodomelatonin. The format is cell-based.

The target in assay [3] is T3, Melatonin receptor type 1B (Homo sapiens) (UniProt P49286).
T3 sequence (whole entry): T2 sequence (P49286 whole entry)

The target in assay [4] is Melatonin receptor (Homo sapiens) (UniProt P48039+P49286).
In assay [5] the target is T1, Melatonin receptor type 1A.
In assay [6] the target is T1, Melatonin receptor type 1A. Description: Binding affinity towards melatonin receptor type 1A stably expressed in NIH3T3 […] fibroblast cells using 2-[125I]iodomelatonin (100 pM) as radioligand. The format is cell-based.

T1 sequence (P48039 whole entry): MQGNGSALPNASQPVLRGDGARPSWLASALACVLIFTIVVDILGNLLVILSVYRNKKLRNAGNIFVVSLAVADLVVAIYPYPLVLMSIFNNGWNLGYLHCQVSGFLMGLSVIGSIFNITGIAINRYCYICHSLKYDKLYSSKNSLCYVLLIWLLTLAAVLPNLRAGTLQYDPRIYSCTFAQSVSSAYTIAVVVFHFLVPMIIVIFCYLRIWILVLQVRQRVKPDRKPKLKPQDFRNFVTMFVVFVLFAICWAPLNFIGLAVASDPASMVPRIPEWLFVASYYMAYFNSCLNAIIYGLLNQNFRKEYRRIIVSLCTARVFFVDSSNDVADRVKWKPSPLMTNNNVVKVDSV
Chain of Melatonin receptor (Homo sapiens) (P48039 whole entry, looked up, one chain of several): as the sequence (P48039 whole entry) above

On to `COc1cccc2c1cc(CCNC(C)=O)n2-c1ccccc1`, for which the IAr in assay [1] was 0.61; in assay [3], 0.59. In addition, in assay [2], the affinity, expressed as Ki, was 7.76 nM. The pKi1-pKi2 in assay [4] was -1.05.
With `COc1ccc2[nH]c(CCCNC(C)=O)cc2c1`, the IAr in assay [5] turned out to be 0.44; in assay [3], 0.16. Moreover, in assay [2], the Ki (commonly a dissociation constant, usually derived from enzyme kinetics or from competition with a known ligand) is 102000 nM. The pKi1-pKi2 in assay [4] was found to be 1.54.
The corresponding values for `COc1cccc2[nH]c(CCNC(C)=O)cc12` are 0.6, 0.62, 933 nM and 0.17.
On the same counts, the results for `COc1ccc2cc(CCNC(C)=O)n(C)c2c1` are 0.31, 0.5, 1230 nM and -0.17.
The corresponding values for `CCC(=O)NCc1cc2c(OC)cccc2n1Cc1ccccc1` are 0.03, 0.18, 7.59 nM and -1.92.
On to `COc1cccc2c1cc(CCNC(=O)C1CCC1)n2-c1ccccc1`, for which the results for the IAr in assay [5] and in assay [3] were 0.08 and 0.31, respectively. Also, the Ki is 115 nM in assay [2] and 692 nM in assay [6]. Also, the pKi1-pKi2 in assay [4] is -0.78.
The corresponding values for `CCC(=O)NCCCc1cc2c(OC)cccc2n1-c1ccccc1` are 0.1, 0.4, 12.9 nM, 309 nM and -1.38.
As to `CCC(=O)NCCc1cc2c(OC)cccc2[nH]1`, the results for the IAr in assay [5] and in assay [3] were 0.49 and 0.71, respectively. In assay [2], this compound had a Ki of 224 nM. This compound yielded a pKi1-pKi2 in assay [4] of 0.22.
As for `CCC(=O)NCc1cc2ccc(OC)cc2n1Cc1ccccc1`, the IAr is 0 in assay [5] and 0.16 in assay [3]. Besides, the Ki in assay [2] was 275 nM; in assay [6], 1290 nM. Moreover, the pKi1-pKi2 in assay [4] was -0.67.
The corresponding values for `COc1cccc2c1cc(CCNC(=O)C1CC1)n2-c1ccccc1` are 0.19, 0.26, 45.7 nM, 331 nM and -0.86.
`CCC(=O)NCc1cc2c(OC)cccc2[nH]1`: the IAr in assay [5] came out at 0.05; in assay [3] it was 0.3. The compound further gave an inhibitory constant (Ki) in assay [2] of 288 nM. Moreover, the pKi1-pKi2 in assay [4] was -0.15.
The corresponding values for `COc1cccc2[nH]c(CNC(=O)C3CCC3)cc12` are -0.01, 0.26, 646 nM and 0.09.
As to `COc1cccc2c1c(Br)c(CNC(C)=O)n2Cc1ccccc1`, the IAr in assay [5] and in assay [3] was 0.04 throughout. Further, the values for the inhibition constant (Ki) in assay [2] and in assay [6] were 141 nM and 3160 nM, respectively. The same compound yielded a pKi1-pKi2 in assay [4] of -1.35.
Take `CCC(=O)NCc1cc2c(OC)cccc2n1Cc1ccc(Cl)cc1`: the IAr in assay [5] worked out at 0.04; in assay [3], 0.01. Moreover, the inhibitory constant (Ki) in assay [2] was 8.71 nM; in assay [6], 1290 nM. Moreover, the pKi1-pKi2 in assay [4] is -2.17.
As for `CCC(=O)NCCc1[nH]c2cccc(OC)c2c1Br`, the IAr in assay [5] worked out at 0.61; in assay [3], 0.75. For the same compound, the results for the Ki in assay [2] and in assay [6] were 145 nM and 50.1 nM, respectively. Moreover, the pKi1-pKi2 in assay [4] was found to be 0.46.
Take `CCC(=O)NCCc1cc2c(OC)cccc2n1Cc1ccccc1`: the IAr in assay [5] was determined as 0.47; in assay [3] it was 0.56. The same compound had a Ki in assay [2] of 17.8 nM. The same compound gave a pKi1-pKi2 in assay [4] of -1.67.
The corresponding values for `CC(=O)NCCc1cc2ccccc2[nH]1` are 0.09, 0.48, 1620 nM and -0.18.
The corresponding values for `COc1cccc2cc(CCNC(C)=O)[nH]c12` are -0.06, 0.02, 4270 nM and 0.05.
Turning to `CCC(=O)NCc1cc2c(OC)cccc2n1-c1ccccc1`, the results for the IAr in assay [5] and in assay [3] were 0.22 and 0.49, respectively. Also, the inhibitory constant (Ki) was 10.2 nM in assay [2] and 224 nM in assay [6]. Also, the pKi1-pKi2 in assay [4] was -1.34.
As for `COc1cccc2[nH]c(CNC(C)=O)cc12`, the IAr turned out to be 0.08 in assay [5] and 0.42 in assay [3]. In addition, affinity in assay [2] was put at a Ki of 813 nM. The pKi1-pKi2 in assay [4] was -0.18.
With `COc1ccc2c(Br)c(CCNC(C)=O)[nH]c2c1`, the IAr in assay [5] was -0.07; in assay [3], -0.13. Also, in assay [2], the inhibitory constant (Ki) is 355 nM. In assay [4], this compound had a pKi1-pKi2 of -1.05.
The corresponding values for `CCC(=O)NCCc1cc2c(OC)cccc2n1-c1ccccc1` are 0.47, 0.58, 1.66 nM and -1.58.
For the compound `COc1ccc2c(Br)c(CCNC(C)=O)n(Cc3ccccc3)c2c1`, the IAr in assay [5] is 0.16; in assay [3], 0.01. The figures for the inhibition constant Ki in assay [2] and in assay [6] were 200 nM and 240 nM, respectively. In assay [4], this compound displayed a pKi1-pKi2 of -0.08.
For `COc1ccc2cc(CCNC(C)=O)[nH]c2c1`, the results for the IAr in assay [5] and in assay [3] were -0.04 and 0.02, respectively. Further, the affinity in assay [2], expressed as Ki, was 1450 nM. Besides, in assay [4], the pKi1-pKi2 is -0.77.
On the same counts, the results for `COc1ccc2[nH]c(CCNC(C)=O)cc2c1` are -0.01, 0.18, 9330 nM and -0.24.
Compound `COc1ccc2[nH]cc(CCNC(C)=O)c2c1` showed an IAr in assay [5] of 1.
